Measurements as given in the supplement of paper PMC7021759.

System: SK-N-MM (SKNMM-MYCN, doxycycline-inducible MYCN)
Test: area under dose-response curve (CellTiter-Glo viability normalised to plate controls) (AUC (arbitrary units)); higher = more loss of viability; extreme values may be limits of the assay
Outline: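 Compounds were pin-transferred as 10-point 1:3 dilution series (890-fold stock dilution) onto SK-N-MM cells with doxycycline-inducible MYCN, plated at 1250 cells/100 μL in 96-well plates and switched about 24 h after plating to medium with or without doxycycline two days before dosing. Dosing was repeated on day 4, and CellTiter-Glo luminescence was read 3 or 8 days after drugging. Area under the dose-response curve came from log2 signals normalised to the positive and negative controls on each plate.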

[1] = MYCN induction (doxycycline): +doxycycline (MYCN induced), time after drugging: 3 days
[2] = MYCN induction (doxycycline): +doxycycline (MYCN induced), time after drugging: 8 days
[3] = MYCN induction (doxycycline): no doxycycline (MYCN not induced), time after drugging: 8 days
[4] = MYCN induction (doxycycline): no doxycycline (MYCN not induced), time after drugging: 3 days

| Compound | area under dose-response curve [1] | area under dose-response curve [2] | area under dose-response curve [3] | area under dose-response curve [4] |
| --- | --- | --- | --- | --- |
| Cc1c(CN2CCC(Nc3ncnc4sc(CC(F)(F)F)cc34)CC2)ccc2c1cc(C#N)n2Cc1cn[nH]c1 [MI-503] | 131 | 177 | 169 |  |
| CCOc1cc2ncc(C#N)c(Nc3ccc(OCc4ccccn4)c(Cl)c3)c2cc1NC(=O)/C=C/CN(C)C [NERATINIB] | 106 | 154 | 151 | 98.3 |
| CN(C)C(=O)c1cc2cnc(Nc3ccc(N4CCNCC4)cn3)nc2n1C1CCCC1 [RIBOCICLIB] | 7.07e-05 | 12.9 | 15.9 | 0 |
